In patent publication US8138158B2, “Compositions and methods for therapy for diseases characterized by defective chloride transport” (Children's Hospital & Research Center at Oakland, priority 1997, dated 2012):
Blank lines part the entries; values can stand above or below the compound they belong to.

Key:
Type in all cases: cell-based, human
Calu-3 monolayers [1] = experiment: Transepithelial chloride currents in forskolin-prestimulated Calu-3 monolayers; details: prestimulated with 10 μM forskolin
Procedure: FIGS. 13A-13C illustrate the effect of additional representative flavonoids and isoflavonoids on chloride current in epithelial cells. FIG. 13A is a graph showing the stimulation of transepithelial chloride currents by reservatrol (100 μM), flavanone (100 μM), flavone (200 μM), apigenin (20 μM), apigenin 7-O-neohesperidoside (30 μM), kaempferol (20 μM), fisetin (100 μM), quercetin (30 μM), rutin (30 μM), genistein (30 μM), daidzein (50 μM), biochanin A (100 μM) and prunetin (100 μM) in Calu-3 monolayers. Experiments were performed in the presence of 10 μM forskolin. Stimulated currents are plotted relative to forskolin stimulated increase (forskolin stimulated currents are 100%). FIG. 13B is a recording showing the effect of 7,4′-dihydroxyflavone on chloride current in unstimulated tissue. […] Increasing concentrations of 7,4′-dihydroxyflavone (as indicated in μM) were added to mucosal side and dose-dependently stimulated chloride currents. Currents were recorded with a serosal-to-mucosal chloride gradient at 0 mV and pulses were obtained at 2 mV. FIG. 13C is a recording illustrating the effect of trimethoxy-apigenin. […] Increasing concentrations of trimethoxy-apigenin (as indicated in μM) were added to mucosal side and dose-dependently stimulated chloride currents. Experiment was performed on unstimulated tissue. Currents were recorded with a serosal-to-mucosal chloride gradient at 0 mV and pulses were obtained at 2 mV.
Airway epithelial cells were prestimulated with 10 μM forskolin. The percent increase in chloride current was then determined following treatment with a series of polyphenolic compounds. FIG. 13A summarizes the stimulatory effect of these compounds.

Calu-3 monolayers [2] = experiment: Transepithelial short-circuit current (Isc) across unstimulated Calu-3 monolayers; details: for transepithelial chloride currents in unstimulated tissue: compound added to mucosal (or serosal) perfusion, L-ascorbic acid 100 μM
Procedure: Currents were recorded with a serosal-to-mucosal chloride gradient at 0 mV and pulses were obtained at 2 mV.
Ascorbic acid (100 μM) was added as indicated. For comparison, ascorbic acid-stimulated chloride current was subsequently stimulated by the cAMP elevating agonist forskolin (20 μM, serosal). The CFTR activator genistein (20 mM) was then added to the mucosal perfusion as indicated. […] Currents were recorded with a serosal-to-mucosal chloride gradient at 0 mV and pulses were obtained at 2 mV.
100 μM ascorbic acid and forskolin (fsk, 20 μM, serosal) were added as indicated. The CFTR activator kaempferol (20 μM) was subsequently added, as indicated. […] Currents were recorded with a serosal-to-mucosal chloride gradient at 0 mV and pulses were obtained at 2 mV.
This experiment was performed using unstimulated tissue.
Kinetic analysis is depicted on the right panel and estimated half maximal stimulatory dose was 11.7 μM. […]
For comparison, ascorbic acid-stimulated chloride currents were stimulated by the cAMP elevating agonist forskolin (20 μM, serosal).
Stimulated C1 currents returned to baseline after 5-15 min.

Calu-3 airway epithelia = experiment: Short-circuit current (transepithelial Cl secretion) across Calu-3 airway epithelia, Examples 12-13
Procedure: (§1) Short-circuit current measurement. Calu-3 or CF15 cells were grown as monolayers, mounted in Ussing chambers and short-circuit current (ISC) was recorded as described (Illek, B. & Fischer, H. (1998) Am. J. Physiol. 275, L902-L910). At 20-50 second intervals, transepithelial voltage was clamped from zero to 2 mV and the transepithelial resistance (Rte) was calculated. A serosa-to-mucosa-directed Cl gradient was applied. Serosal Ussing chamber solution contained (in mM): 120 NaCl, 20 NaHCO3, 5 KHCO3, 1.2 NaH2PO4, 5.6 glucose, 2.5 CaCl2, 1.2 MgCl2. In mucosal Ussing chamber solutions, all Cl salts were exchanged for gluconate salts.
Vitamin C activation of CFTR-mediated Cl secretion was studied in Calu-3 cells grown as epithelial monolayers (FIG. 21A). Exposure of the apical membrane to maximal concentrations of L-ascorbic acid stimulated transepithelial Cl currents (ISC) in a sustained fashion to 96±11 μA/cm^2 (n=22). Subsequent addition of forskolin further increased ISC to 141±33 μA/cm^2 (n=9, p=0.029). On average, Cl secretion was stimulated by ascorbate to 68% of the currents elicited by forskolin. The Cl channel blocker diphenylcarboxylate (DPC, 4 mM) was added as a measure for the transcellular Cl current decreasing ISC to 30±4 μA/cm^2. When Cl secretion was first stimulated with forskolin (to 106±23 μA/cm^2, n=4) ascorbate had no significant effect on Ise (at 100 μM: ΔICl=−1.5±3.5 μA/cm^2, n=4, not different from zero, one-sample t test). Half-maximal stimulatory constant averaged 36.5±2.9 μm as determined from transepithelial dose-response experiments.
Furthermore, the response to ascorbate in Na-containing medium was blunted in the presence of phloretin, a known inhibitor of the sodium-dependent vitamin C transporters SVCT1 and SVCT2 (Tsukaguchi, H., Tokui, T., Mackenzie, B., Berger, U. V., Chen, X. Z., Wang, Y., Brubaker, R. F. & Hediger, M. A. (1999) Nature 399, 70-75). […] Molecular expression of SVCT1 and SVCT2 transcripts in Calu-3 cells was verified using RT-PCR and DNA sequencing analysis. For comparison, human ciliated tracheal epithelial cultures (hTE) and a nasal cystic fibrosis airway cell line (CF15) were included. […] The recombinantly expressed SVCT2-EGFP fusion protein was targeted exclusively to the apical membrane pole of CF15 epithelia.

[3] = system: wildtype CFTR-corrected CF15 monolayers; experiment: Short-circuit current across wildtype CFTR-corrected CF15 monolayers; details: forskolin added on ascorbate-stimulated current
Procedure: Human airway cell culture. The human submucosal serous gland-like cell line Calu-3, the CF nasal epithelial cell line homozygous for ΔF508 CFTR (CF15) and human tracheal primary cultures (hTE) were cultured as described (Jefferson, D. M., Valentich, J. D., Marini, F. C., Grubman, S. A., Iannuzzi, M. C., Dorkin, H. L., Li, M., Klinger, K. W. & Welsh, M. J. (1990) Am. J. Physiol. 259, L496-L505. Sachs, L. A., Finkbeiner, W. E. & Widdicombe, J. H. (2003) In Vitro Cell Dev. Biol. Anim. 39, 56-62.). Wildtype CFTR-corrected CF15 cells were generated via adenovirus-mediated gene transfer. Growth media were nominally free of ascorbic acid (<10 μm, University Pathology Inc., Salt Lake City, Utah). For transepithelial measurements cells were grown on permeable filter inserts and used after 3 to 10 days.
as §1
The CF15 cell line was used to determine whether ascorbate-stimulated Cl currents were solely mediated by the CFTR Cl conductance. The CF15 cell line is characterized by the absence of functional CFTR in the apical plasma membrane but the presence of other non-CFTR Cl conductances (Jefferson, D. M., Valentich, J. D., Marini, F. C., Grubman, S. A., Iannuzzi, M. C., Dorkin, H. L., Li, M., Klinger, K. W. & Welsh, M. J. (1990) Am. J. Physiol. 259, L496-L505). A concentration of L-ascorbic acid that lay within the upper plateau of the dose response curve (500 μm) was applied and ascorbate-stimulated Cl currents in CF15 vs. wildtype CFTR-corrected CF15 monolayers was compared (FIG. 23A). […] The defective response to L-ascorbic acid was reversed in wildtype CFTR-corrected CF15 epithelia such that ISC responded promptly to L-ascorbic acid (ΔISC=7.5±0.5 μA/cm^2, n=6). The ascorbate-stimulated current was further activated by the cAMP agonist forskolin and total stimulated ISC averaged 12.1±1.1 μA/cm^2 (FIG. 4B). The ascorbate-stimulated Cl current reached 60±15% of the forskolin-stimulated current in CFTR-corrected CF15 monolayers, which was close to the corresponding findings in Calu-3 monolayers (68%, see FIG. 21A). The absence of ascorbate-stimulated Cl currents in CF15 monolayers supports the notion that non-CFTR Cl conductances were not activated by L-ascorbic acid.
In this example, chloride currents stimulated by L-ascorbate or D-ascorbate were measured in CF15 versus. wildtype CFTR-corrected CF15 monolayers. A concentration of L-ascorbate (1 mM) or D-isoascorbate (300 μm) that lay within the upper plateau of the dose-response curve was applied to cells and the resulting chloride currents stimulated in CF15 versus wildtype CFTR-corrected CF15 monolayers were measured (FIG. 25 A-H). All experiments were performed in the presence of the sodium channel blocker amiloride. […]

[4] = dehydroascorbic acid 10, 100 or 300 μM

Compound: C[C@@H]1O[C@@H](OC[C@H]2O[C@@H](Oc3c(-c4ccc(O)c(O)c4)oc4cc(O)cc(O)c4c3=O)[C@H](O)[C@@H](O)[C@@H]2O)[C@H](O)[C@H](O)[C@H]1O [rutin]
chloride currents further stimulated to (forskolin stimulated currents are 100%) (Calu-3 monolayers [1]; compound at 30 μM): 149%

Compound: fisetin
chloride currents further stimulated to (forskolin stimulated currents are 100%) (Calu-3 monolayers [1]; compound at 100 μM): 108%

Compound: O=c1cc(-c2ccccc2)oc2ccccc12 [flavone]
chloride currents further stimulated to (forskolin stimulated currents are 100%) (Calu-3 monolayers [1]; compound at 200 μM): 128%

Compound: O=C1CC(c2ccccc2)Oc2ccccc21 (stereo not drawn) [flavanone]
chloride currents further stimulated to (forskolin stimulated currents are 100%) (Calu-3 monolayers [1]; compound at 100 μM): 140%

Compound: O=c1cc(-c2ccc(O)cc2)oc2cc(O)ccc12 [7,4′-Dihydroxyflavone]
transepithelial chloride currents in unstimulated tissue (Calu-3 monolayers [2]; [4]): dose-dependently stimulated transepithelial C1 currents

Compound: C[C@@H]1O[C@@H](O[C@H]2[C@H](Oc3cc(O)c4c(=O)cc(-c5ccc(O)cc5)oc4c3)O[C@H](CO)[C@@H](O)[C@@H]2O)[C@H](O)[C@H](O)[C@H]1O [apigenin 7-O-neohesperidoside]
chloride currents further stimulated to (forskolin stimulated currents are 100%) (Calu-3 monolayers [1]; compound at 30 μM): 155%

Compound: C=C[C@@]1(C)CC(=O)[C@]2(O)[C@@]3(C)[C@@H](O)CCC(C)(C)[C@@H]3[C@H](O)[C@H](OC(C)=O)[C@@]2(C)O1 [forskolin, reference compound]
Cl secretion first stimulated with forskolin to (Calu-3 airway epithelia; forskolin first, n=4): 106±23 μA/cm^2
ISC further increased to (Calu-3 airway epithelia; subsequent addition of forskolin after L-ascorbic acid, n=9): 141±33 μA/cm^2
total stimulated ISC [3]: 12.1±1.1 μA/cm^2

Compound: O=C(CCc1ccc(O)cc1)c1c(O)cc(O)cc1O [phloretin, reference compound]
response to ascorbate in presence of SVCT inhibitor (Calu-3 airway epithelia; Na-containing medium, pre-treatment with 200 μM phloretin): blunted

Compound: O=c1c(-c2ccc(O)cc2)coc2cc(O)ccc12 [daidzein]
chloride currents further stimulated to (forskolin stimulated currents are 100%) (Calu-3 monolayers [1]; compound at 50 μM): 162%

Compound: Oc1ccc(/C=C/c2cc(O)cc(O)c2)cc1 [reservatrol, trans-3,5,4′-trihydroxystilbene]
chloride currents further stimulated to (forskolin stimulated currents are 100%) (Calu-3 monolayers [1]; compound at 100 μM): 135%
transepithelial chloride currents in unstimulated tissue (Calu-3 monolayers [2]; [4]): dose-dependently stimulated transepithelial chloride currents

Compound: COc1cc(O)c2c(=O)c(-c3ccc(O)cc3)coc2c1 [prunetin]
chloride currents further stimulated to (forskolin stimulated currents are 100%) (Calu-3 monolayers [1]; compound at 100 μM): 161%

Compound: O=C1O[C@H](C(O)CO)C(=O)C1=O (stereo partly drawn) [dehydroascorbic acid, L-threo-2,3-Hexodiulosonic acid γ-lactone]
transepithelial chloride currents in unstimulated tissue (Calu-3 monolayers [2]; [4]): effectively stimulated transepithelial chloride currents
stimulated Cl currents returned to baseline after (Calu-3 monolayers [2]; [4]): 5 to 15 min

EC50 (Calu-3 monolayers [2]; unstimulated tissue, mucosal addition, kinetic analysis, read-out: estimated half maximal stimulatory dose): 11.7 µM
Compound: COc1ccc(-c2cc(=O)c3c(OC)cc(OC)cc3o2)cc1 [trimethoxy-apigenin]
transepithelial chloride currents in unstimulated tissue (Calu-3 monolayers [2]; [4]): dose-dependently stimulated transepithelial C1 currents
